Assay results reported in paper PMC9926489, “Chemical Optimization of Selective Pseudomonas aeruginosa LasB Elastase Inhibitors and Their Impact on LasB-Mediated Activation of IL-1β in Cellular and Animal Infection Models” (ACS Infectious Diseases, 2023).

How the values were obtained:
[1] = target: T1, LasB N68S, T120I, A122T, S241G, S436L (Pseudomonas aeruginosa, UniProt P14756, S241G/S436L); test: LasB variant inhibition, culture supernatant: N68S, T120I, A122T, S241G, S436L; format: biochemical, P. aeruginosa
T1 construct: Most changes were identified in the mature peptide, however some occurred in the propeptide domain; endogenous in cells; host or cells: P. aeruginosa clinical CF isolate, culture supernatant
T1 sequence (P14756 198-498, looked up, stated change not applied): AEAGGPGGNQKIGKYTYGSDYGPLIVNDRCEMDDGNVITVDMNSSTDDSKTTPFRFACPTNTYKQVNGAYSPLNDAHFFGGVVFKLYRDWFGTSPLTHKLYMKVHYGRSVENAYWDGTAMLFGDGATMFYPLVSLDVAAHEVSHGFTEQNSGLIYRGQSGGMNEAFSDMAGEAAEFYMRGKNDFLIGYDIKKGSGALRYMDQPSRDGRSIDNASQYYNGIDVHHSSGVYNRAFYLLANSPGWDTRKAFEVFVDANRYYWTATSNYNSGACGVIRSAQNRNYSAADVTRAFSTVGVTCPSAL
From the text: (§1) Compounds 12 and 16 were discovered as a result of optimizing potency against the LasB protein expressed from the wild-type (WT) reference strain P. aeruginosa PAO1. To understand the relative prevalence of the WT LasB protein versus other variants in clinical respiratory P. aeruginosa strains, the full-length lasB gene was amplified by PCR from 255 clinical isolates (obtained from CF sputum samples). […] Most changes were identified in the mature peptide, however some occurred in the propeptide domain, which could affect LasB processing (marked in italics in Table 4).
(§2) LasB inhibition assays were performed using purified LasB enzyme (1 ng/well) for compound screening or using culture supernatants (prepared as described in the ECR assay) for testing LasB variants. Hydrolysis of the fluorogenic peptide substrate 2-aminobenzoyl-Ala-Gly-Leu-Ala-4-nitrobenzylamide (Abz-AGLA-Nba; Peptide International) in 50 mM Tris-HCl (pH 7.4), supplemented with 2.5 mM CaCl2 was followed using an Envision microplate reader (PerkinElmer) at 315 nm excitation and 430 nm emission. […] IC50 values were determined from Hill plots using Dotmatics Studies ELN software. For the mechanism of inhibition studies, hydrolysis rates were measured in the presence of variable concentrations of substrate and inhibitor, and the inhibition constant (Ki) was determined using Dixon plot analysis.[31]

LasB S241G = target: T2, LasB S241G (Pseudomonas aeruginosa, UniProt P14756, S241G); test: LasB variant inhibition, culture supernatant: S241G; format: biochemical, P. aeruginosa
T2 construct: endogenous in cells; host or cells: P. aeruginosa clinical CF isolate, culture supernatant
T2 sequence (P14756 198-498 S241G): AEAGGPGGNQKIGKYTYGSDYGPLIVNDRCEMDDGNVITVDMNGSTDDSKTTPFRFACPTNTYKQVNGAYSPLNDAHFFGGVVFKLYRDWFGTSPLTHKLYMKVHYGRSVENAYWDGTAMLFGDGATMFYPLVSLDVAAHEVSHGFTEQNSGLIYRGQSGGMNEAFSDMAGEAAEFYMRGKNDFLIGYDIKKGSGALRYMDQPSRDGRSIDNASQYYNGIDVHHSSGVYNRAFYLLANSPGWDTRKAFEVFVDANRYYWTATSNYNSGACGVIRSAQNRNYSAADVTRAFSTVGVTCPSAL
From the text: as §1, §2

purified LasB [2] = target: T3, purified LasB (Pseudomonas aeruginosa, UniProt P14756); test: LasB inhibition, fluorimetric Abz-AGLA-Nba hydrolysis assay with purified LasB; format: biochemical
T3 construct: The mature LasB protein is a 33 kDa metalloprotease, which is secreted from P. aeruginosa; host or cells: P. aeruginosa PAO1 (native secretion, culture supernatant)
T3 sequence (P14756 198-498): as the sequence (P14756 198-498, looked up, stated change not applied) above
From the text: This was chosen as the starting point for a medicinal chemistry-driven lead optimization program aiming to improve potency and solubility whilst retaining selectivity against host metalloenzymes. All synthesized compounds were initially assessed in a fluorimetric assay measuring hydrolysis of a fluorogenic substrate Abz-Ala-Gly-Leu-Ala-4-nitrobenzylamide (Abz-AGLA-Nba) by purified LasB and IC50 values determined (Tables 1 and 2). Inhibition of elastin hydrolytic activity was confirmed using an orthogonal assay measuring hydrolysis of Elastin Congo Red (ECR) complex by LasB prepared directly from a P. aeruginosa culture supernatant (Tables 1 and 2). […] Aqueous solubility was determined for most compounds (Tables 1 and 2).
Native LasB protein was purified from culture supernatants of P. aeruginosa strain PAO1 (Charles River Laboratories, U.K.). Briefly, the sample was concentrated by ultrafiltration and the protein was purified by chromatography using an anion exchange (pH 8.5) step followed by gel filtration. This procedure yielded an enzyme preparation (0.8 mg/mL) of >98% purity. The enzyme was stored at −80 °C.
LasB inhibition assays were performed using purified LasB enzyme (1 ng/well) for compound screening or using culture supernatants (prepared as described in the ECR assay) for testing LasB variants. Hydrolysis of the fluorogenic peptide substrate 2-aminobenzoyl-Ala-Gly-Leu-Ala-4-nitrobenzylamide (Abz-AGLA-Nba; Peptide International) in 50 mM Tris-HCl (pH 7.4), supplemented with 2.5 mM CaCl2 was followed using an Envision microplate reader (PerkinElmer) at 315 nm excitation and 430 nm emission. For screening of lead compounds, assays were performed in the presence of 0.01% Triton X-100 with a range of inhibitor concentrations from 0.003 to 3.2 μM. IC50 values were determined from Hill plots using Dotmatics Studies ELN software. For the mechanism of inhibition studies, hydrolysis rates were measured in the presence of variable concentrations of substrate and inhibitor, and the inhibition constant (Ki) was determined using Dixon plot analysis.[31]

[3] = target: T4, LasB Q102R, S241G, D244N, K282N, R471S (Pseudomonas aeruginosa, UniProt P14756, D244N/K282N/R471S/S241G); test: LasB variant inhibition, culture supernatant: five substitutions; format: biochemical, P. aeruginosa
T4 construct: Most changes were identified in the mature peptide, however some occurred in the propeptide domain; endogenous in cells; host or cells: P. aeruginosa clinical CF isolate, culture supernatant
T4 sequence (P14756 198-498, looked up, stated change not applied): as above
From the text: as §1, §2

purified LasB [4] = target: T3, purified LasB; test: Inhibition of LasB-mediated proteolysis of pro-IL-1β-derived peptide Sub115; format: biochemical, P. aeruginosa
From the text: Previous studies have shown that LasB cleaves the N-terminal domain of pro-IL-1β, thereby generating a mature active form of IL-1β in a manner analogous to the normal host activation mechanism involving cleavage by caspases.[16] This activity can be followed spectrophotometrically via hydrolysis of an internally quenched fluorescent peptide Sub115 (McA-HDAPVRSLN-K-Dnp), which incorporates the LasB cleavage site from pro-IL-1β. To determine whether compounds 12 and 16 were able to inhibit this activity, Sub115 hydrolysis was measured in the presence of varying concentrations of substrate and inhibitors (Figure 2B). […] These values, although still submicromolar, were higher than those determined with the Abz-AGLA-Nba hydrolysis assay, perhaps due to the different ion composition of the respective assay buffers.
The peptide HDAPVRSLN, corresponding to amino acids 115–123 of the reference human pro-IL-1β sequence (UniProt: PO1584), was labeled on the N-terminus with Mca and on the C-terminus with Lys-Dnp (CPC Scientific) to generate an internally quenched fluorescent peptide (Sub115). […] The reaction was continuously monitored using a Victor multimode plate reader (PerkinElmer) with excitation at 355 nm and emission at 450 nm, and initial kinetic velocity was calculated. Inhibitory constants (Ki) were determined (two independent replicates) using a competitive inhibitor model.

SMILES | IC50 [1] [nM] | IC50 (LasB S241G) [nM] | IC50 (purified LasB [2]) [nM] | Ki (purified LasB [2]) [nM] | IC50 [3] [nM] | Ki (purified LasB [4]) [nM]
COc1cc2sc(CNC(=O)C3(CC(=O)O)Cc4ccccc4C3)nc2cc1OCCC[N+](C)(C)C [Compound 12] | 267 | 221 | 130 | 35 | 183 | 704
COc1cc2sc(CNC(=O)C3(CC(=O)O)Cc4cc(F)c(F)cc4C3)nc2cc1OCCC[N+](C)(CCO)CCO [Compound 16] | 253 | 206 | 80 | 32 | 178 | 475
